Source: ChEMBL document CHEMBL1136219, “Synthesis and SAR evaluation of oxadiazolopyrazines as selective Haemophilus influenzae antibacterial agents” (2003)
≈ marks a conversion by molar mass, not a printed value.

What was measured:
Type in all cases: functional
[1] = test system: Streptococcus pneumoniae; assay: Minimum inhibitory concentration against Streptococcus pneumoniae
[2] = test system: Candida albicans; assay: Minimum inhibitory concentration against Candida albicans
[3] = test system: Staphylococcus aureus; assay: Minimum inhibitory concentration against Staphylococcus aureus
[4] = test system: JIYOYE; assay: Cytotoxicity against human Jijoye B cell
[5] = test system: Escherichia coli; assay: Minimum inhibitory concentration against Escherichia coli
[6] = test system: Haemophilus influenzae; assay: Minimum inhibitory concentration against Haemophilus influenzae

| SMILES | MIC [1] | MIC [2] | MIC [3] | Cytotoxicity [4] | MIC [5] | MIC [6] |
| --- | --- | --- | --- | --- | --- | --- |
| Oc1nc2nonc2nc1-c1ccccc1 | 128 µg/mL (≈ 598 µM) | > 128 µg/mL | 128 µg/mL (≈ 598 µM) | >100 µg/mL | 128 µg/mL (≈ 598 µM) | 1 µg/mL (≈ 4.67 µM) |
| O=[N+]([O-])c1ccc(-c2nc3nonc3nc2O)cc1 | 128 µg/mL (≈ 494 µM) | > 128 µg/mL | > 128 µg/mL | >100 µg/mL | > 128 µg/mL | 8 µg/mL (≈ 30.9 µM) |
| O=[N+]([O-])c1cccc(-c2nc3nonc3nc2O)c1 | 64 µg/mL (≈ 247 µM) | > 128 µg/mL | 32 µg/mL (≈ 123 µM) | >100 µg/mL | > 128 µg/mL | 1 µg/mL (≈ 3.86 µM) |
| Oc1nc2nonc2nc1-c1cccc(Br)c1 | 64 µg/mL (≈ 218 µM) | > 128 µg/mL | 32 µg/mL (≈ 109 µM) | >100 µg/mL | > 128 µg/mL | 0.5 µg/mL (≈ 1.71 µM) |
| Oc1nc2nonc2nc1-c1ccc(Br)cc1 | 64 µg/mL (≈ 218 µM) | > 128 µg/mL | 16 µg/mL (≈ 54.6 µM) | >100 µg/mL | > 128 µg/mL | 1 µg/mL (≈ 3.41 µM) |
| Oc1nc2nonc2nc1-c1ccc(Cl)cc1 | 128 µg/mL (≈ 515 µM) | > 128 µg/mL | 16 µg/mL (≈ 64.4 µM) | >100 µg/mL | > 128 µg/mL | 1 µg/mL (≈ 4.02 µM) |
| Oc1nc2nonc2nc1-c1ccccc1Br | 128 µg/mL (≈ 437 µM) | > 128 µg/mL | > 128 µg/mL | >100 µg/mL | > 128 µg/mL | 128 µg/mL (≈ 437 µM) |
| Oc1nc2nonc2nc1-c1ccc(C(F)(F)F)cc1 | 64 µg/mL (≈ 227 µM) | > 128 µg/mL | 32 µg/mL (≈ 113 µM) | >100 µg/mL | > 128 µg/mL | 4 µg/mL (≈ 14.2 µM) |
| COc1cc(-c2nc3nonc3nc2O)cc(OC)c1OC | 128 µg/mL (≈ 421 µM) | > 128 µg/mL | > 128 µg/mL | >100 µg/mL | > 128 µg/mL | 128 µg/mL (≈ 421 µM) |
| COc1ccc(-c2nc3nonc3nc2O)cc1 | 128 µg/mL (≈ 524 µM) | > 128 µg/mL | 64 µg/mL (≈ 262 µM) | >100 µg/mL | > 128 µg/mL | 4 µg/mL (≈ 16.4 µM) |
| CN(C)c1ccc(-c2nc3nonc3nc2O)cc1 | 128 µg/mL (≈ 498 µM) | > 128 µg/mL | > 128 µg/mL | >100 µg/mL | > 128 µg/mL | 4 µg/mL (≈ 15.5 µM) |
| Oc1nc2nonc2nc1-c1cccc(F)c1 | 64 µg/mL (≈ 276 µM) | > 128 µg/mL | 64 µg/mL (≈ 276 µM) | >100 µg/mL | 128 µg/mL (≈ 551 µM) | 1 µg/mL (≈ 4.31 µM) |
| Oc1nc2nonc2nc1-c1ccc(Oc2ccccc2)cc1 | 64 µg/mL (≈ 209 µM) | > 128 µg/mL | 4 µg/mL (≈ 13.1 µM) | 60 µg/mL | > 128 µg/mL | 8 µg/mL (≈ 26.1 µM) |
| Oc1nc2nonc2nc1-c1ccsc1 | 128 µg/mL (≈ 581 µM) | > 128 µg/mL | 64 µg/mL (≈ 291 µM) | 100 µg/mL | 128 µg/mL (≈ 581 µM) | 1 µg/mL (≈ 4.54 µM) |
| Oc1nc2nonc2nc1-c1ccc(N2CCOCC2)cc1 | 64 µg/mL (≈ 214 µM) | > 128 µg/mL | > 128 µg/mL | >100 µg/mL | > 128 µg/mL | 32 µg/mL (≈ 107 µM) |
| Oc1nc2nonc2nc1-c1ccccc1Cl | 128 µg/mL (≈ 515 µM) | > 128 µg/mL | > 128 µg/mL | >100 µg/mL | > 128 µg/mL | 128 µg/mL (≈ 515 µM) |
| Oc1nc2nonc2nc1-c1cccc(Cl)c1 | 64 µg/mL (≈ 257 µM) | > 128 µg/mL | 128 µg/mL (≈ 515 µM) | >100 µg/mL | > 128 µg/mL | 1 µg/mL (≈ 4.02 µM) |
| Oc1nc2nonc2nc1-c1ccc[nH]1 | 128 µg/mL (≈ 630 µM) | 128 µg/mL (≈ 630 µM) | 128 µg/mL (≈ 630 µM) | >100 µg/mL | > 128 µg/mL | 4 µg/mL (≈ 19.7 µM) |
| Cn1cccc1-c1nc2nonc2nc1O | 64 µg/mL (≈ 295 µM) | > 128 µg/mL | > 128 µg/mL | >100 µg/mL | > 128 µg/mL | 8 µg/mL (≈ 36.8 µM) |
| Oc1nc2nonc2nc1-c1ccc(F)cc1 | 64 µg/mL (≈ 276 µM) | > 128 µg/mL | 64 µg/mL (≈ 276 µM) | >100 µg/mL | > 128 µg/mL | 1 µg/mL (≈ 4.31 µM) |
| Oc1nc2nonc2nc1-c1ccc2c(c1)OCO2 | 128 µg/mL (≈ 496 µM) | > 128 µg/mL | 64 µg/mL (≈ 248 µM) | >100 µg/mL | > 128 µg/mL | 2 µg/mL (≈ 7.75 µM) |
| Oc1nc2nonc2nc1-c1ccc(C2CCCCC2)cc1 | 64 µg/mL (≈ 216 µM) | > 128 µg/mL | 4 µg/mL (≈ 13.5 µM) | 60 µg/mL | > 128 µg/mL | 16 µg/mL (≈ 54 µM) |
| COc1cccc(-c2nc3nonc3nc2O)c1 | 64 µg/mL (≈ 262 µM) | > 128 µg/mL | 128 µg/mL (≈ 524 µM) | >100 µg/mL | > 128 µg/mL | 8 µg/mL (≈ 32.8 µM) |
| Oc1nc2nonc2nc1-c1ccccc1F | 64 µg/mL (≈ 276 µM) | > 128 µg/mL | > 128 µg/mL | >100 µg/mL | > 128 µg/mL | 8 µg/mL (≈ 34.5 µM) |
| Oc1nc2nonc2nc1-c1cccc(C(F)(F)F)c1 | 128 µg/mL (≈ 454 µM) | > 128 µg/mL | 32 µg/mL (≈ 113 µM) | >100 µg/mL | > 128 µg/mL | 2 µg/mL (≈ 7.09 µM) |
| Oc1nc2nonc2nc1-c1cccs1 | 64 µg/mL (≈ 291 µM) | > 128 µg/mL | 32 µg/mL (≈ 145 µM) | >100 µg/mL | 128 µg/mL (≈ 581 µM) | 0.5 µg/mL (≈ 2.27 µM) |
| Oc1nc2nonc2nc1-c1c[nH]c2ccccc12 | 64 µg/mL (≈ 253 µM) | > 128 µg/mL | > 128 µg/mL | >100 µg/mL | > 128 µg/mL | 8 µg/mL (≈ 31.6 µM) |
| Oc1nc2nonc2nc1-c1ccc(N2CCCCC2)cc1 | 128 µg/mL (≈ 431 µM) | > 128 µg/mL | 64 µg/mL (≈ 215 µM) | >100 µg/mL | > 128 µg/mL | 64 µg/mL (≈ 215 µM) |
